US10933056B2, “3-(1H-pyrazol-4-yl)pyridine allosteric modulators of the M4 muscarinic acetylcholine receptor” (Merck Sharp & Dohme Corp., priority 2015, dated 2021)

Target: T1, human M4 muscarinic acetylcholine receptor (Homo sapiens, UniProt P08173)
T1 construct: expressed in transfected cells; host or cells: CHO-K1
T1 sequence (P08173 1-479): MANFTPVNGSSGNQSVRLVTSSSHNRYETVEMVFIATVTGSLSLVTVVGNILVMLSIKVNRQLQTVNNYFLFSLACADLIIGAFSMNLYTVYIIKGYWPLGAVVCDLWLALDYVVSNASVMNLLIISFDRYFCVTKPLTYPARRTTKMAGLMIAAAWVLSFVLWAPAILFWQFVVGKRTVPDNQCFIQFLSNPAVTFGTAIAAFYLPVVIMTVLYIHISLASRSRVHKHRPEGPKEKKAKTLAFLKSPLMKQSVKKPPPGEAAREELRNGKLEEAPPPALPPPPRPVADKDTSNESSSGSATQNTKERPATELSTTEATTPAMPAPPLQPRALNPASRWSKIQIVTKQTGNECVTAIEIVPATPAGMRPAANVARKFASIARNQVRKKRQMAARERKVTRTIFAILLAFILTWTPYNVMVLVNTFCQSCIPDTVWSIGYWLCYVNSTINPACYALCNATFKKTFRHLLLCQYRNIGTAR
Experiment: human FLIPR-based M4 PAM assay (calcium mobilization in CHO-K1 cells with human M4 receptor and Gαqi5)
Format: cell-based
Conditions: inflection point of dose response curve, acetylcholine at 20% of maximum response, FLIPR Tetra, read-out: M4 PAM IP
Procedure: (§1) In a typical experiment the M4 muscarinic acetylcholine receptor modulating activity of the compounds of the present invention was determined in accordance with the following experimental method. CHO-K1 cells stably transfected with human M4 receptor and chimeric G-protein Gαqi5 (Coward P, et al., Analytical Biochemistry, 270:242-248 (1999)) are thawed from liquid N2 storage, resuspended in growth medium, plated in black, clear bottom 384 well plates, and incubated 16-20 hours at 37° C., 5% CO2. On the day of assay, growth medium is removed, the cells are washed 2 times with wash buffer, and cells are incubated in dye loading buffer at 37° C., 5% CO2 for ˜1 hour. Following dye loading the cell plates are placed in a FLIPR Tetra instrument and while monitoring dye fluorescence (excitation […]), 10 uL of test substance at increasing concentrations is added, and fluorescence values are recorded for 4 min. Next, 10 uL of acetylcholine is added (final concentration calculated so as to achieve 20% of the maximum acetycholine response), and the fluorescence reading is continued for 3.5 min. In some cases, a third addition of acetylcholine (final concentration calculated to achieve 70% of the maximal acetylcholine response) is performed. The resulting dose response curves are fit to a 4 parameter logistic equation and the final result is determined as the inflection point (IP) of the curve
as §1, with “CHO-K1” for “In a typical experiment the M4 muscarinic acetylcholine receptor modulating activity of the compounds of the present invention was determined in accordance with the following experimental method. CHO-K1”, “Gαqi5” for “Gαqi5 (Coward P, et al., Analytical Biochemistry, 270:242-248 (1999))”, “performed.” for “performed. The resulting dose response curves are fit to a 4 parameter logistic equation and the final result is determined as the inflection point (IP) of the curve”

| Structure (SMILES) | EC50 [nM] |
| --- | --- |
| CC1(Cn2cc(-c3cc4c(nc3-c3cnc5c(c3)C(=O)N(CC3CC3)C5)[C@H](F)CC4)cn2)CCCC1 (single isomer, unassigned) [Example 1A] | 67 |
| CC1(Cn2cc(-c3cc4c(nc3-c3cnc5c(c3)C(=O)N(CC3CC3)C5)[C@@H](F)CC4)cn2)CCCC1 (single isomer, unassigned) [Example 1B] | 75 |
| Cc1cc(-c2cnn(CC3(C)CCCC3)c2)c(-c2cnc3c(c2)C(=O)N(C)C3)nc1F [Example 1, 3-(6-Fluoro-5-methyl-3-(1-((1-methylcyclopentyl)methyl)-1H-pyrazol-4-yl)pyridin-2-yl)-6-methyl-6,7-dihydro-5H-pyrrolo[3,4-b]pyridin-5-one] | 39 |
| CN1Cc2ccc(-c3nc(C#N)ccc3-c3cnn(CC4(C)CCCC4)c3)cc2C1=O [Example 2, 6-(2-Methyl-3-oxoisoindolin-5-yl)-5-(1-((1-methylcyclopentyl)methyl)-1H-pyrazol-4-yl)picolinonitrile] | 16 |
| Cc1ccc(-c2cnn(CC3CCCC3)c2)c(-c2ccc3c(c2)C(=O)N(CC2CC2)C3)n1 [Example 3, 6-(3-(1-(cyclopentylmethyl)-1H-pyrazol-4-yl)-6-methylpyridin-2-yl)-2-(cyclopropylmethyl)isoindolin-1-one] | 38 |
| Cc1ccc(-c2cnn(CC3CCCC3)c2)c(-c2ccc3c(c2)C(=O)N(CCc2ccccc2)C3)n1 [Example 4, 6-(3-(1-(cyclopentylmethyl)-1H-pyrazol-4-yl)-6-methylpyridin-2-yl)-2-phenethylisoindolin-1-one] | 37 |
| Cc1ccc(-c2cnn(CC3CCCC3)c2)c(-c2ccc3c(c2)C(=O)N(CC2CCCO2)C3)n1 (stereo not shown) [Example 5, 6-(3-(1-(cyclopentylmethyl)-1H-pyrazol-4-yl)-6-methylpyridin-2-yl)-2-((tetrahydrofuran-2-yl)methyl)isoindolin-1-one] | 20 |
| Cc1ccc(-c2cnn(CC3CCCC3)c2)c(-c2ccc3c(c2)C(=O)N(C2CC2)C3)n1 [Example 6, 6-(3-(1-(cyclopentylmethyl)-1H-pyrazol-4-yl)-6-methylpyridin-2-yl)-2-cyclopropylisoindolin-1-one] | 20 |
| O=C1c2cc(-c3nccc(F)c3-c3cnn(CC4CCCC4)c3)ccc2CN1CC1CC1 [Example 7, 6-(3-(1-(cyclopentylmethyl)-1H-pyrazol-4-yl)-4-fluoropyridin-2-yl)-2-(cyclopropylmethyl)isoindolin-1-one] | 22 |
| O=C1c2cc(-c3ncccc3-c3cnn(CC4CCCC4)c3F)ccc2CN1CC1CC1 [Example 8, 6-(3-(1-(cyclopentylmethyl)-5-fluoro-1H-pyrazol-4-yl)pyridin-2-yl)-2-(cyclopropylmethyl)isoindolin-1-one] | 142 |
| Cc1ccc(-c2cnn(CC3CCCC3)c2F)c(-c2ccc3c(c2)C(=O)N(CC2CC2)C3)n1 [Example 9, 6-(3-(1-(cyclopentylmethyl)-5-fluoro-1H-pyrazol-4-yl)-6-methylpyridin-2-yl)-2-(cyclopropylmethyl)isoindolin-1-one] | 12 |
| CC1(Cn2cc(-c3cc4c(nc3-c3cnc5c(c3)C(=O)N(CC3CC3)C5)CCC4)cn2)CCCC1 [Example 10, 6-(cyclopropylmethyl)-3-(3-(1-((1-methylcyclopentyl)methyl)-1H-pyrazol-4-yl)-6,7-dihydro-5H-cyclopenta[b]pyridin-2-yl)-6,7-dihydro-5H-pyrrolo[3,4-b]pyridin-5-one] | 54 |
| CN1Cc2ccc(-c3nc(C#N)ccc3-c3cnn(CC4CCCC4)c3)cc2C1=O [Example 11, 5-(1-(cyclopentylmethyl)-1H-pyrazol-4-yl)-6-(2-methyl-3-oxoisoindolin-5-yl)picolinonitrile] | 11 |
| CNC(=O)c1ccc(-c2cnn(CC3CCCC3)c2)c(-c2ccc3c(c2)C(=O)N(CC2CC2)C3)n1 [Example 12, 5-(1-(cyclopentylmethyl)-1H-pyrazol-4-yl)-6-(2-(cyclopropylmethyl)-3-oxoisoindolin-5-yl)-N-methylpicolinamide] | 348 |
| CNC(=O)c1ccc(-c2cnn(CC3CCCC3)c2)c(-c2ccc3c(c2)C(=O)N(C2CC2)C3)n1 [Example 13, 5-(1-(cyclopentylmethyl)-1H-pyrazol-4-yl)-6-(2-cyclopropyl-3-oxoisoindolin-5-yl)-N-methylpicolinamide] | 613 |
| CNC(=O)c1ccc(-c2cnn(CC3CCCC3)c2)c(-c2ccc3c(c2)C(=O)N(C)C3)n1 [Example 14, 5-(1-(cyclopentylmethyl)-1H-pyrazol-4-yl)-N-methyl-6-(2-methyl-3-oxoisoindolin-5-yl)picolinamide] | 687 |
| NC(=O)c1ccc(-c2cnn(CC3CCCC3)c2)c(-c2ccc3c(c2)C(=O)N(CC2CC2)C3)n1 [Example 15, 5-(1-(cyclopentylmethyl)-1H-pyrazol-4-yl)-6-(2-(cyclopropylmethyl)-3-oxoisoindolin-5-yl)picolinamide] | 94 |
| NC(=O)c1ccc(-c2cnn(CC3CCCC3)c2)c(-c2ccc3c(c2)C(=O)N(C2CC2)C3)n1 [Example 16, 5-(1-(cyclopentylmethyl)-1H-pyrazol-4-yl)-6-(2-cyclopropyl-3-oxoisoindolin-5-yl)picolinamide] | 297 |
| CN1Cc2ccc(-c3nc(C(N)=O)ccc3-c3cnn(CC4CCCC4)c3)cc2C1=O [Example 17, 5-(1-(cyclopentylmethyl)-1H-pyrazol-4-yl)-6-(2-methyl-3-oxoisoindolin-5-yl)picolinamide] | 278 |
| N#Cc1ccc(-c2cnn(CC3CCCC3)c2)c(-c2ccc3c(c2)C(=O)N(CC2CC2)C3)n1 [Example 18, 5-(1-(cyclopentylmethyl)-1H-pyrazol-4-yl)-6-(2-(cyclopropylmethyl)-3-oxoisoindolin-5-yl)picolinonitrile] | 8 |
| N#Cc1ccc(-c2cnn(CC3CCCC3)c2)c(-c2ccc3c(c2)C(=O)N(C2CC2)C3)n1 [Example 19, 5-(1-(cyclopentylmethyl)-1H-pyrazol-4-yl)-6-(2-cyclopropyl-3-oxoisoindolin-5-yl)picolinonitrile] | 9 |
| N#Cc1ccc(-c2cnn(CC3CCCC3)c2)c(-c2ccc3c(c2)C(=O)NC3)n1 [Example 20, 5-(1-(cyclopentylmethyl)-1H-pyrazol-4-yl)-6-(3-oxoisoindolin-5-yl)picolinonitrile] | 9 |
| O=C1c2cc(-c3nc(F)ccc3-c3cnn(CC4CCCC4)c3)ccc2CN1CC1CC1 [Example 21, 6-(3-(1-(cyclopentylmethyl)-1H-pyrazol-4-yl)-6-fluoropyridin-2-yl)-2-(cyclopropylmethyl)isoindolin-1-one] | 22 |
| CN1Cc2ccc(-c3nc(F)ccc3-c3cnn(CC4CCCC4)c3)cc2C1=O [Example 22, 6-(3-(1-(cyclopentylmethyl)-1H-pyrazol-4-yl)-6-fluoropyridin-2-yl)-2-methylisoindolin-1-one] | 28 |
| O=C1c2cc(-c3nc(F)ccc3-c3cnn(CC4CCCC4)c3)ccc2CN1C1CC1 [Example 23, 6-(3-(1-(cyclopentylmethyl)-1H-pyrazol-4-yl)-6-fluoropyridin-2-yl)-2-cyclopropylisoindolin-1-one] | 34 |
| CC1(Cn2cc(-c3cccnc3-c3ccc4c(c3)C(=O)NC4)cn2)CCCC1 [Example 24, 6-(3-(1-((1-methylcyclopentyl)methyl)-1H-pyrazol-4-yl)pyridin-2-yl)isoindolin-1-one] | 20 |
| CN1Cc2ccc(-c3ncccc3-c3cnn(CC4(C)CCCC4)c3)cc2C1=O [Example 25, 2-methyl-6-(3-(1-((1-methylcyclopentyl)methyl)-1H-pyrazol-4-yl)pyridin-2-yl)isoindolin-1-one] | 21 |
| CC1(Cn2cc(-c3cccnc3-c3ccc4c(c3)C(=O)N(C3CC3)C4)cn2)CCCC1 [Example 26, 2-cyclopropyl-6-(3-(1-((1-methylcyclopentyl)methyl)-1H-pyrazol-4-yl)pyridin-2-yl)isoindolin-1-one] | 32 |
